Laboratory results reported in patent US9409905B2, “Antibacterial compounds and methods for use” (PTC THERAPEUTICS, INC., priority 2011, dated 2016).
In brackets after ≈: the same amount, converted by molar mass.

Legend:
[1] = system: Pseudomonas aeruginosa (P. aeruginosa) 27853; experiment: Antibacterial activity, MIC (Table 5); assay type: cell-based; conditions: P. aeruginosa 27853, read-out: MIC, 27853
Source text: (§1) The antibacterial activity from a microbroth dilution method may be presented as the minimum inhibitory concentration (MIC in μg/mL). The MIC value is the lowest concentration of drug which prevents macroscopically visible growth under test conditions.
Antibacterial activity of test compounds against the Gram-negative bacterium Pseudomonas aeruginosa (P. aeruginosa) 27853 is shown in Table 5.

E. coli LZ3111 = experiment: Antibacterial activity, MIC, quinolone resistant strain (Table 2); assay type: cell-based; conditions: Escherichia coli, LZ3111, read-out: MIC LZ3111
Outline: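 Broth microdilution. Read-out: MIC in μg/mL, taken as lowest concentration with no macroscopically visible growth.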

[2] = system: Klebsiella pneumoniae (K. pneumoniae) 35657; experiment: Antibacterial activity, MIC (Table 4); assay type: cell-based; conditions: K. pneumoniae 35657, read-out: MIC, 35657
Source text: as §1
(§2) Antibacterial activity of test compounds against the Gram-negative Acinetobacter baumannii (A. baumannii) BAA747 and Klebsiella pneumoniae (K. pneumoniae) 35657 bacterium and the resistant A. baumannii MXX2240 and K. pneumoniae MXX1232 strains are shown in Table 4. The MMX strains are multi-drug resistant clinical isolates.

[3] = system: Acinetobacter baumannii (A. baumannii) BAA747; experiment: Antibacterial activity, MIC (Table 4); assay type: cell-based; conditions: A. baumannii BAA747, read-out: MIC, BAA747
Source text: as §1, §2

[4] = system: Escherichia coli (E. coli) BAS849; experiment: Antibacterial activity, microbroth dilution MIC (Table 1); assay type: cell-based; conditions: microbroth dilution, super sensitive Gram-negative E. coli BAS849, read-out: MIC, BAS849
Outline: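 MIC (μg/mL) is taken as the lowest concentration with no macroscopically visible growth. Strains tested by microbroth dilution: Gram-positive S. aureus 29213, control Gram-negative E. coli 25922, and super-sensitive E. coli BAS849.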

[5] = system: Staphylococcus aureus (S. aureus) 29213; experiment: as above; assay type: cell-based; conditions: microbroth dilution, Gram-positive S. aureus 29213, read-out: MIC, 29213
Outline: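 Broth microdilution against S. aureus 29213, E. coli 25922 and hypersensitive E. coli BAS849. MIC in μg/mL is the lowest drug concentration preventing macroscopically visible growth under test conditions.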

E. coli 25922 = experiment: as above; assay type: cell-based, Escherichia coli; conditions: Escherichia coli; microbroth dilution; control Gram-negative E. coli 25922 strain; read-out: MIC, 25922
Outline: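 Each strain is exposed to test compound in a microbroth dilution series; visible growth is scored macroscopically, and the lowest growth-free concentration is recorded as MIC in μg/mL.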

K. pneumoniae MXX1232 = experiment: Antibacterial activity, MIC, resistant strain (Table 4); assay type: cell-based; conditions: Klebsiella pneumoniae, MXX1232; resistant K. pneumoniae MMX1232, multi-drug resistant clinical isolate; read-out: MIC, MMX1232
Source text: as §1, §2

Row | Compound | MIC [1] | MIC (E. coli LZ3111) | MIC [2] | MIC [3] | MIC [4] | MIC [5] | MIC (E. coli 25922) | MIC (K. pneumoniae MXX1232)
1 | CCc1cc(C(=O)O)c(=O)[nH]c1-c1ccc2c(c1)cc(CCN1CCOCC1)n2C [Cpd 162, 5-ethyl-6-(1-methyl-2-(2-morpholinoethyl)-1H-indol-5-yl)-2-oxo-1,2-dihydropyridine-3-carboxylic acid] | 12.5 to 150 µg/mL (≈ 30.5 to 366 µM) | 12.5 to 150 µg/mL (≈ 30.5 to 366 µM) | 1 to 3.5 µg/mL (≈ 2.44 to 8.55 µM) | 3.5 to 12.5 µg/mL (≈ 8.55 to 30.5 µM) | < 1 µg/mL | 12.5 to 150 µg/mL (≈ 30.5 to 366 µM) | 1 to 3.5 µg/mL (≈ 2.44 to 8.55 µM) | –
2 | CCc1c(-c2ccc3c(c2)cc(CNCc2ccncc2)n3C)[nH]c(=O)c(C(=O)O)c1O.Cl [Cpd 221, 5-ethyl-4-hydroxy-6-(1-methyl-2-((pyridin-4-ylmethylamino)methyl)-1H-indol-5-yl)-2-oxo-1,2-dihydropyridine-3-carboxylic acid hydrochloride] | – | 12.5 to 150 µg/mL | 1 to 3.5 µg/mL | – | < 1 µg/mL | 1 to 3.5 µg/mL | 1 to 3.5 µg/mL | 12.5 to 150 µg/mL
3 | CCc1cc(C(=O)O)c(=O)[nH]c1-c1ccc2c(c1)cc(CN1CCC(O)C1)n2C (centres unmarked) [Cpd 125, 5-ethyl-6-(2-((3-hydroxypyrrolidin-1-yl)methyl)-1-methyl-1H-indol-5-yl)-2-oxo-1,2-dihydropyridine-3-carboxylic acid] | 12.5 to 150 µg/mL (≈ 31.6 to 379 µM) | 12.5 to 150 µg/mL (≈ 31.6 to 379 µM) | < 1 µg/mL | 12.5 to 150 µg/mL (≈ 31.6 to 379 µM) | < 1 µg/mL | 12.5 to 150 µg/mL (≈ 31.6 to 379 µM) | 1 to 3.5 µg/mL (≈ 2.53 to 8.85 µM) | –
4 | CCc1cc(C(=O)O)c(=O)[nH]c1-c1ccc2c(c1)cc1n2CCC1N1CCOCC1 (centres unmarked) [Cpd 155, 5-ethyl-6-(1-morpholino-2,3-dihydro-1H-pyrrolo[1,2-a]indol-7-yl)-2-oxo-1,2-dihydropyridine-3-carboxylic acid] | 12.5 to 150 µg/mL (≈ 30.7 to 368 µM) | 12.5 to 150 µg/mL (≈ 30.7 to 368 µM) | 3.5 to 12.5 µg/mL (≈ 8.59 to 30.7 µM) | 12.5 to 150 µg/mL (≈ 30.7 to 368 µM) | < 1 µg/mL | 12.5 to 150 µg/mL (≈ 30.7 to 368 µM) | 3.5 to 12.5 µg/mL (≈ 8.59 to 30.7 µM) | –
5 | CCc1cc(C(=O)O)c(=O)[nH]c1-c1ccc2c(c1)cc(CN1CCCC1c1ccccc1)n2C (centres unmarked) [Cpd 131, 5-ethyl-6-(1-methyl-2-((2-phenylpyrrolidin-1-yl)methyl)-1H-indol-5-yl)-2-oxo-1,2-dihydropyridine-3-carboxylic acid] | 12.5 to 150 µg/mL (≈ 27.4 to 329 µM) | 12.5 to 150 µg/mL (≈ 27.4 to 329 µM) | 12.5 to 150 µg/mL (≈ 27.4 to 329 µM) | 3.5 to 12.5 µg/mL (≈ 7.68 to 27.4 µM) | < 1 µg/mL | 1 to 3.5 µg/mL (≈ 2.2 to 7.68 µM) | 1 to 3.5 µg/mL (≈ 2.2 to 7.68 µM) | –
6 | CCc1c(-c2ccc3c(c2)cc(CNCc2ccccc2)n3C)[nH]c(=O)c(C(=O)O)c1O.Cl [Cpd 214, 6-(2-((benzylamino)methyl)-1-methyl-1H-indol-5-yl)-5-ethyl-4-hydroxy-2-oxo-1,2-dihydropyridine-3-carboxylic acid hydrochloride] | – | 12.5 to 150 µg/mL | 12.5 to 150 µg/mL | – | < 1 µg/mL | 1 to 3.5 µg/mL | < 1 µg/mL | 12.5 to 150 µg/mL
7 | CCc1c(-c2ccc3c(c2)cc(C2CCNC2)n3C)[nH]c(=O)c(C(=O)O)c1O (centres unmarked) [Cpd 306, 5-ethyl-4-hydroxy-6-(1-methyl-2-(pyrrolidin-3-yl)-1H-indol-5-yl)-2-oxo-1,2-dihydropyridine-3-carboxylic acid] | 12.5 to 150 µg/mL (≈ 32.8 to 393 µM) | 3.5 to 12.5 µg/mL (≈ 9.18 to 32.8 µM) | 3.5 to 12.5 µg/mL (≈ 9.18 to 32.8 µM) | 12.5 to 150 µg/mL (≈ 32.8 to 393 µM) | 1 to 3.5 µg/mL (≈ 2.62 to 9.18 µM) | 12.5 to 150 µg/mL (≈ 32.8 to 393 µM) | 3.5 to 12.5 µg/mL (≈ 9.18 to 32.8 µM) | –
8 | CCc1c(-c2ccc3c(c2)cc(CNC(C)c2cccnc2)n3C)[nH]c(=O)c(C(=O)O)c1O.Cl (centres unmarked) [Cpd 242, 5-ethyl-4-hydroxy-6-(1-methyl-2-((1-(pyridin-3-yl)ethylamino)methyl)-1H-indol-5-yl)-2-oxo-1,2-dihydropyridine-3-carboxylic acid hydrochloride] | – | 12.5 to 150 µg/mL | – | – | < 1 µg/mL | 1 to 3.5 µg/mL | 1 to 3.5 µg/mL | –
9 | CCc1cc(C(=O)O)c(=O)[nH]c1-c1ccc2c(c1)cc(C(C)(C)N1CCCC1)n2C [Cpd 88, 5-ethyl-6-(1-methyl-2-(2-(pyrrolidin-1-yl)propan-2-yl)-1H-indol-5-yl)-2-oxo-1,2-dihydropyridine-3-carboxylic acid] | – | 12.5 to 150 µg/mL (≈ 30.7 to 368 µM) | – | – | < 1 µg/mL | 12.5 to 150 µg/mL (≈ 30.7 to 368 µM) | 3.5 to 12.5 µg/mL (≈ 8.59 to 30.7 µM) | –
10 | CCc1cc(C(=O)O)c(=O)[nH]c1-c1ccc2nc(CN3CCCCC3)cn2c1.Cl.Cl [Cpd 62, 5-ethyl-2-oxo-6-(2-(piperidin-1-ylmethyl)imidazo[1,2-a]pyridin-6-yl)-1,2-dihydropyridine-3-carboxylic acid dihydrochloride] | – | 12.5 to 150 µg/mL | – | – | 12.5 to 150 µg/mL | 12.5 to 150 µg/mL | 12.5 to 150 µg/mL | –
